Experimental data published in publication PMC3250956, “Functional characterization and analgesic effects of mixed cannabinoid receptor/T-type channel ligands” (Molecular Pain, 2011).
Like-named read-outs stand apart in the source and are kept apart here.

What was measured:
[1] = biological target: T1, Cav3.2 (Homo sapiens, UniProt O95180); assay: Whole-cell patch-clamp on Cav3.2: concentration-response and steady-state inactivation; format: cell-based; conditions: 10 μM
T1 construct: expressed in transfected cells; host or cells: tsA-201 cells, transient calcium phosphate transfection
Experimental: To further characterize compounds NMP-4, NMP-7 and NMP-144, we investigated the concentration dependence of their action on Cav3.2, the major T-type calcium channel subtype implicated in the afferent pain pathway (Figure 2B, C).
To determine whether these compounds also affected inactivated channels, we recorded steady-state inactivation curves prior and after application of NMP-4, NMP-7 or NMP-144.
Whole-cell currents were recorded from tsa-201 cells 2-4 days after transfection. The external recording solution contained (in mM): BaCl2 (20), MgCl2 (1), HEPES (10), TEA-Cl (40), CsCl (65), d-glucose (10) and pH 7.2 adjusted with TEA-OH. The internal pipette solution was composed of (in mM) Cs-methanesulfonate (108), MgCl2 (4), EGTA (9), HEPES (9) and pH 7.2 adjusted with CsOH. The internal solution was supplemented with 0.6 mM GTP (sodium salt) and 2 mM ATP (tris salt), which were added directly to the internal solution immediately prior to use. Pipettes with a resistance of 2~5 MΩ when filled with internal solution were used for recording. Currents were elicited from a holding potential of -100 mV and were measured by conventional whole-cell patch clamp using an Axopatch 200B amplifier in combination with Clampex 9.2 software (Axon Instruments, Foster City, CA). Data were filtered at 1 kHz (8-pole Bessel) and digitized at 10 kHz with a Digidata 1320 (Axon Instruments, Foster City, CA). Series resistance were compensated by 85% in all experiments. An online P/4 programme was used to subtract the leak currents. Drugs were dissolved in DMSO at the following stock concentrations: 20 mM for NMP-4 and NMP-7, and 10 mM for NMP-139, NMP-140, NMP-141 and NMP-144. Prior to the experiment, drugs were diluted into external recording solution with a final DMSO concentration no higher than 0.3%. DMSO was also included in the control solution. Drug delivery was controlled by a Valvelink8.2 fast perfusion system (Automate Scientific Inc., Berkeley, CA). The perfusion tip was positioned a few hundred microns from the cell and kept as constant as possible throughout the experiments. Electrophysiological data were analyzed using Clampfit 9.2 (Axon Instruments, Foster City, CA) and GraphPad Prism 5 software (GraphPad Software Inc., San Diego, CA). […] Steady-state inactivation curves were fitted using the Boltzmann equation: I = 1/(1 + e ^(V-Vh)/k), where Vh is the half inactivating potential and k is the slope factor.

[2] = tested on: formalin-induced pain; assay: Formalin test (formalin-induced nociception); format: in vivo, mice
Experimental: All experiments were conducted following the protocol approved by the Institutional Animal Care and Use Committee (protocol #M09130) and all efforts were made to minimize animal suffering. Male mice of C57BL/6J strain weighing 25~30 g, 10 weeks old were used. Animals were housed at a maximum number of five per cage (30 × 20 × 15 cm) with food and water ad libitum. They were kept in 12 h light/dark cycles (lights on at 7:00 a.m.) at a temperature of 23 ± 1°C. All manipulations were carried out between 11:00 am and 3:00 pm. […] Control animals received the same vehicle used to dilute the compounds. When drugs were delivered by intraperitoneal (i.p.) route, a constant volume of 10 ml/kg body weight was injected. When drugs were administered by intrathecal (i.t.) or intraplantar (i.pl.) routes, respectively volumes of 5 μl or 20 μl were injected. Appropriate vehicle-treated groups were also assessed simultaneously.
The formalin test is a widely used model that allows us to evaluate two different types of pain: neurogenic pain (phase 1) is caused by direct activation of nociceptive nerve terminals, while inflammatory pain (phase 2) is mediated by a combination of peripheral input and spinal cord sensitization. Animals received 20 μl of a formalin solution (1.25%) made up in PBS injected intraplantarly (i.pl.) in the ventral surface of the right hindpaw. Following i.pl. injection of formalin, the animals were immediately placed individually into observation chambers and the time spent licking or biting the injected paw was be recorded and considered as nociceptive response. We observed animals individually from 0-5 min (neurogenic phase) and 15-30 min (inflammatory phase).
Intrathecal injections were given to fully conscious mice using the method previously described by Hylden and Wilcox. Briefly, the animals were manually restrained, and a 30-gauge needle connected by a polyethylene tube to a 25 μl Hamilton syringe (Hamilton, Birmingham, UK) was inserted through the skin and between the vertebrae into the […] space of the L5-L6 spinal segments. Intrathecal injections were given over a period of 5 seconds.

[3] = tested on: locomotor activity; assay: Open-field test; format: in vivo, mice; conditions: 1 mg/kg i.p., 30 minutes before the experiment; data not shown
From the text: We then delivered NMP-7 via the intrperitoneal route.

[4] = biological target: Human CB1 (Homo sapiens, UniProt P21554); assay: GTPγ[35S] functional assay, CHO cell membrane extracts; set-up: Emax: dose or concentration left out as unconfirmed
[5] = biological target: T2, Human CB2 (Homo sapiens, UniProt P34972); assay: as above; format: biochemical; set-up: expressed in transfected cells; host or cells: CHO cells (membrane extracts); conditions: for Emax: read-out: GTPγ[35S] functional assays Human CB2 Emax
[6] = biological target: T3, human 5-HT2A (Homo sapiens, UniProt P28223); assay: Primary radioligand competitive binding assay, [3H]ketanserin; conditions: ligand 10 μM, HEK293 cells
T3 construct: expressed in transfected cells; host or cells: HEK293 (Flp-In system, pcDNA5.0FRT)
Experimental: (§1) HEK293 cells and CHO cells were used in the radioligand binding assay while tsA-201 cells were used in the electrophysiological study. Human CB2, human 5-HT2A, rat 5-HT2C used in the binding studies were cloned into pcDNA5.0FRT and cell lines were made using the FlpIn system from Invitrogen. tsA-201 cell culture and transient calcium channel transfection were performed as described previously. In brief, tsA-201 cells were transfected using the calcium phosphate method. Cav3.1, 3.2 and 3.3 α1 subunits were transfected individually with yellow fluorescent protein as a transfection marker.
(§2) Radioligand binding data were obtained using National Institute of Mental Health's Psychoactive Drug Screening Program (NIMH/PDSP) using the same protocol described for CB1 and CB2 binding experiments. Transfected HEK293 (human 5-HT2A or rat 5-HT2C) cells were used. The radioligands were [^3H]ketanserin (0.5 nM) and [^3H]mesulergine (0.5 nM) for respectively 5-HT2A and 5-HT2C experiments. Non-specific binding was determined in the presence of 10 μM chlorpromazine for both 5-HT2A and 5-HT2C binding experiments. Cells were harvested and homogenized in 50 mM Tris HCl, 10 mM MgCl2, 0.1 mM EDTA, pH 7.4. Incubation of radioreceptor binding assay mixtures was 1.5 hours at room temperature in the dark.

[7] = biological target: T4, rat 5-HT2C (Rattus norvegicus, UniProt P08909); assay: Primary radioligand competitive binding assay, [3H]mesulergine; conditions: ligand 10 μM, HEK293 cells
T4 construct: expressed in transfected cells; host or cells: HEK293 (Flp-In system, pcDNA5.0FRT)
T4 sequence (P08909 33-460): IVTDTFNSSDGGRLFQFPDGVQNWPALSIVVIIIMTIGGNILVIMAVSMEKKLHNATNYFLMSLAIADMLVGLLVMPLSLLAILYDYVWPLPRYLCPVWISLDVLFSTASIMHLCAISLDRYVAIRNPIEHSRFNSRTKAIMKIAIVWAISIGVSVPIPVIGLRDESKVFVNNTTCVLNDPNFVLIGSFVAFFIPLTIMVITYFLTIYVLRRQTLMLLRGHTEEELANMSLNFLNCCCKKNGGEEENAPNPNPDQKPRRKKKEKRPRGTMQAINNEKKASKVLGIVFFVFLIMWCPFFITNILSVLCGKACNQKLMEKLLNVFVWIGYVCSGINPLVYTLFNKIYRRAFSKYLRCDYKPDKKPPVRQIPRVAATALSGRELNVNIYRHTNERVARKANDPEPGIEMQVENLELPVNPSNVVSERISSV
Experimental: as §1, §2

[8] = biological target: T5, Rat CB1 (Rattus norvegicus, UniProt P20272); assay: Radioligand competitive binding, [3H]CP55940, rat brain homogenate; conditions: for Rat CB1 (%) primary radioligand competitive binding: ligand 10 μM, rat brain homogenates; for Ki: NA: not active at 1 μM, read-out: Mean Ki Rat CB1
T5 construct: membrane fractions prepared from rat brain homogenate expressing CB1 receptor; from tissue; host or cells: rat brain homogenate
Experimental: (§3) CB1 and CB2 radioligand binding data were obtained using National Institute of Mental Health (NIMH) Psychoactive Drug Screening Program (PDSP) resources as described earlier. Compounds were screened in a competitive binding experiment using, respectively, membrane fractions prepared from rat brain homogenate expressing CB1 receptor and HEK293 cells expressing the human CB2 receptor. Experiments were conducted at a range of different concentrations and in duplicate. The competition binding experiment for CB1 and CB2 was performed in 96 well plates containing Standard Binding Buffer (50 mM Tris HCl, 1 mM EDTA, 3 mM MgCl2, 5 mg/ml fatty acid-free BSA, pH 7.4). The radioligand was [^3H]CP55940, and the reference compound was CP55940. A solution of the compound to be tested was prepared as a 1 mg/ml stock in DMSO and then diluted in Standard Binding Buffer by serial dilution. Radioligand was diluted to five times the assay concentration in Standard Binding Buffer. Aliquots (50 μl) of radioligand were dispensed into the wells of a 96-well plate containing 100 μl of Standard Binding Buffer. Then, duplicate 50-μl aliquots of the test and reference compound dilutions were added. Finally, crude membrane fractions of cells were resuspended in 3 ml of chilled Standard Binding Buffer and homogenized by several passages through a 26 gauge needle, then 50 μl were dispensed into each well. The 250-μl reactions were incubated at room temperature for 1.5 hours, and then harvested by rapid filtration onto Whatman GF/B glass fiber filters pre-soaked with 0.3% polyethyleneimine using a 96-well Brandel harverster. Four rapid 500-μl washes were performed. Filters were placed in 6-ml scintillation tubes and allowed to dry overnight. Bound radioactivity was harvested onto 0.3% polyethyleneimine-treated, 96-well filter mats using a 96-well Filtermate harvester. The filter mats were dried, then scintillant was melted onto the filters and the radioactivity retained on the filters counted in a Microbeta scintillation counter. Raw data (dpm) representing total radioligand binding (i.e., specific + non-specific binding) were plotted as a function of the logarithm of the molar concentration of the competitor (i.e., test or reference compound). Non-linear regression of the normalized (i.e., percent radioligand binding compared to that observed in the absence of test or reference compound) raw data was performed in Prism 4.0 (GraphPad Software) using the built-in three parameter logistic model describing ligand competition binding to radioligand-labeled sites: y = bottom + [(top-bottom)/(1 + 10 × -logIC50)] where bottom equals the residual radioligand binding measured in the presence of 10 μM reference compound (i.e., non-specific binding) and top equals the total radioligand binding observed in the absence of competitor. The log IC50 (i.e., the log of the ligand concentration that reduces radioligand binding by 50%) is thus estimated from the data and used to obtain the Ki by applying the Cheng-Prusoff approximation: Ki = IC50/(1 + [ligand]/KD) where [ligand] equals the assay radioligand concentration and KD equals the affinity constant of the radioligand for the target receptor.

[9] = tested on: T-type calcium channels (Cav3.1, Cav3.2, Cav3.3); assay: Whole-cell patch-clamp screen on recombinant T-type calcium channels in tsA-201 cells; format: cell-based, human; conditions: 10 μM; held at -100 mV, pulse to -20 mV; barium current; three Cav3 isoforms
From the text: Studies have shown that several endocannabinoids and phytocannabinoids have direct inhibitory actions on T-type voltage-gated calcium channels. To determine whether the NMP compounds produced a similar effect, we characterized their actions on transiently expressed T-type calcium channels via whole-cell patch-clamp recordings. Cells were held at -100 mV and barium current was evoked by a depolarizing pulse to -20 mV.
as §1, with “Cav3.1, 3.2 and 3.3 α1 subunits were transfected individually with yellow fluorescent protein as a transfection marker.” left out
Whole-cell currents were recorded from tsa-201 cells 2-4 days after transfection. […] Currents were elicited from a holding potential of -100 mV and were measured by conventional whole-cell patch clamp using an Axopatch 200B amplifier in combination with Clampex 9.2 software (Axon Instruments, Foster City, CA). […] Electrophysiological data were analyzed using Clampfit 9.2 (Axon Instruments, Foster City, CA) and GraphPad Prism 5 software (GraphPad Software Inc., San Diego, CA). […]

[10] = biological target: T2, Human CB2; assay: Radioligand competitive binding, [3H]CP55940, HEK293 cells; set-up: expressed in transfected cells; conditions: for Ki: NA: not active at 1 μM, read-out: Mean Ki Human CB2; for Human CB2 (%) primary radioligand competitive binding: ligand 10 μM, HEK293 cells
Experimental: as §1, §3

[11] = 1 mg/kg i.p., 30 min before behavioural assessment
[12] = i.t., 10 min prior, NMP-4 1-10 μg/i.t., NMP-144 0.1-1 μg/i.t., NMP-7 3-30 μg/i.t., mice

T3 sequence (P28223 whole entry): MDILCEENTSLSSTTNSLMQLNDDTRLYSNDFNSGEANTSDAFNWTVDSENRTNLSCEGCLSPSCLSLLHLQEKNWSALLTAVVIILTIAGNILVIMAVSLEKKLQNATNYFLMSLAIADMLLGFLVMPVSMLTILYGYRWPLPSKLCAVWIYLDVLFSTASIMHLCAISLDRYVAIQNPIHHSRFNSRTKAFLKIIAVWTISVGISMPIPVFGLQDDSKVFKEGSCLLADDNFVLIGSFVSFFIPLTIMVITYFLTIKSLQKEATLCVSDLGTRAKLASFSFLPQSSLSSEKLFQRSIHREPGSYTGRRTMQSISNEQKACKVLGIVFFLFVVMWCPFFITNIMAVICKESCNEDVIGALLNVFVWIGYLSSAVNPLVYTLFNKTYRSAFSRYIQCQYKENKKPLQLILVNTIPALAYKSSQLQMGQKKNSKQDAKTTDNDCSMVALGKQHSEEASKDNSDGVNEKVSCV
Chain of Human CB1 (P21554 whole entry): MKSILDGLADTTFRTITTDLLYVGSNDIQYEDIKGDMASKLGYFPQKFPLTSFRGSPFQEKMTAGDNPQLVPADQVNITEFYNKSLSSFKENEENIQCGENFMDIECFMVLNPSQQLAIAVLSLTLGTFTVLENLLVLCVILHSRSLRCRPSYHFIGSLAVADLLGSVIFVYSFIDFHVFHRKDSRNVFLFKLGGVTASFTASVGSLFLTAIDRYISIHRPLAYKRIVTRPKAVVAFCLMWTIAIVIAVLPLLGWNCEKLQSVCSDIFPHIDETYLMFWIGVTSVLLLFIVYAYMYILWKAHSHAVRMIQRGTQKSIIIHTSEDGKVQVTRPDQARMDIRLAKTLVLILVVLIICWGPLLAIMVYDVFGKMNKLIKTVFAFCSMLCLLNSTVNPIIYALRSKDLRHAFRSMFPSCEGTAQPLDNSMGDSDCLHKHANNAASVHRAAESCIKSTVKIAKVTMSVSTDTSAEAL
T2 sequence (P34972 whole entry): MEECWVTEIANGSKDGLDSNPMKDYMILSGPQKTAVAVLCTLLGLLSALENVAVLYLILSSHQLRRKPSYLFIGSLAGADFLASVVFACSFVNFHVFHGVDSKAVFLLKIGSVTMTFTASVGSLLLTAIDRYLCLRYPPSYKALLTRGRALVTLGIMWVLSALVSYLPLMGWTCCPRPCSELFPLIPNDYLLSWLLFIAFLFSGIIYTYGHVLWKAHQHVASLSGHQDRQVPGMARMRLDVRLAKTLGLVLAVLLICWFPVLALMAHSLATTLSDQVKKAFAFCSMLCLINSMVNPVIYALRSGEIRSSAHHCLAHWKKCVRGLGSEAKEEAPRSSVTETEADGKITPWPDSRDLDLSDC
T5 sequence (P20272 whole entry): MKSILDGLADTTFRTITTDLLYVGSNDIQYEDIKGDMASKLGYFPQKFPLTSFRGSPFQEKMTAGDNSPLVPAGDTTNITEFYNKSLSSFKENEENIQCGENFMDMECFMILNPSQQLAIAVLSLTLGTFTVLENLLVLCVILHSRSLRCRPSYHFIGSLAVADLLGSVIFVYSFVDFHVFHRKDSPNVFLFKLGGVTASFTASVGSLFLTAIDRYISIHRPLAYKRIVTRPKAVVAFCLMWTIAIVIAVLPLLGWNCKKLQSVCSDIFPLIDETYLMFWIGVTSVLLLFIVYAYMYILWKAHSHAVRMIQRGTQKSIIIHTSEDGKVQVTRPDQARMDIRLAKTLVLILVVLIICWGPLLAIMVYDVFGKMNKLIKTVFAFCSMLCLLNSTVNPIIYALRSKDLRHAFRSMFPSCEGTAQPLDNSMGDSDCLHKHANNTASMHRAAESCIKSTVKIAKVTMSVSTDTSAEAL
T1 sequence (O95180 whole entry): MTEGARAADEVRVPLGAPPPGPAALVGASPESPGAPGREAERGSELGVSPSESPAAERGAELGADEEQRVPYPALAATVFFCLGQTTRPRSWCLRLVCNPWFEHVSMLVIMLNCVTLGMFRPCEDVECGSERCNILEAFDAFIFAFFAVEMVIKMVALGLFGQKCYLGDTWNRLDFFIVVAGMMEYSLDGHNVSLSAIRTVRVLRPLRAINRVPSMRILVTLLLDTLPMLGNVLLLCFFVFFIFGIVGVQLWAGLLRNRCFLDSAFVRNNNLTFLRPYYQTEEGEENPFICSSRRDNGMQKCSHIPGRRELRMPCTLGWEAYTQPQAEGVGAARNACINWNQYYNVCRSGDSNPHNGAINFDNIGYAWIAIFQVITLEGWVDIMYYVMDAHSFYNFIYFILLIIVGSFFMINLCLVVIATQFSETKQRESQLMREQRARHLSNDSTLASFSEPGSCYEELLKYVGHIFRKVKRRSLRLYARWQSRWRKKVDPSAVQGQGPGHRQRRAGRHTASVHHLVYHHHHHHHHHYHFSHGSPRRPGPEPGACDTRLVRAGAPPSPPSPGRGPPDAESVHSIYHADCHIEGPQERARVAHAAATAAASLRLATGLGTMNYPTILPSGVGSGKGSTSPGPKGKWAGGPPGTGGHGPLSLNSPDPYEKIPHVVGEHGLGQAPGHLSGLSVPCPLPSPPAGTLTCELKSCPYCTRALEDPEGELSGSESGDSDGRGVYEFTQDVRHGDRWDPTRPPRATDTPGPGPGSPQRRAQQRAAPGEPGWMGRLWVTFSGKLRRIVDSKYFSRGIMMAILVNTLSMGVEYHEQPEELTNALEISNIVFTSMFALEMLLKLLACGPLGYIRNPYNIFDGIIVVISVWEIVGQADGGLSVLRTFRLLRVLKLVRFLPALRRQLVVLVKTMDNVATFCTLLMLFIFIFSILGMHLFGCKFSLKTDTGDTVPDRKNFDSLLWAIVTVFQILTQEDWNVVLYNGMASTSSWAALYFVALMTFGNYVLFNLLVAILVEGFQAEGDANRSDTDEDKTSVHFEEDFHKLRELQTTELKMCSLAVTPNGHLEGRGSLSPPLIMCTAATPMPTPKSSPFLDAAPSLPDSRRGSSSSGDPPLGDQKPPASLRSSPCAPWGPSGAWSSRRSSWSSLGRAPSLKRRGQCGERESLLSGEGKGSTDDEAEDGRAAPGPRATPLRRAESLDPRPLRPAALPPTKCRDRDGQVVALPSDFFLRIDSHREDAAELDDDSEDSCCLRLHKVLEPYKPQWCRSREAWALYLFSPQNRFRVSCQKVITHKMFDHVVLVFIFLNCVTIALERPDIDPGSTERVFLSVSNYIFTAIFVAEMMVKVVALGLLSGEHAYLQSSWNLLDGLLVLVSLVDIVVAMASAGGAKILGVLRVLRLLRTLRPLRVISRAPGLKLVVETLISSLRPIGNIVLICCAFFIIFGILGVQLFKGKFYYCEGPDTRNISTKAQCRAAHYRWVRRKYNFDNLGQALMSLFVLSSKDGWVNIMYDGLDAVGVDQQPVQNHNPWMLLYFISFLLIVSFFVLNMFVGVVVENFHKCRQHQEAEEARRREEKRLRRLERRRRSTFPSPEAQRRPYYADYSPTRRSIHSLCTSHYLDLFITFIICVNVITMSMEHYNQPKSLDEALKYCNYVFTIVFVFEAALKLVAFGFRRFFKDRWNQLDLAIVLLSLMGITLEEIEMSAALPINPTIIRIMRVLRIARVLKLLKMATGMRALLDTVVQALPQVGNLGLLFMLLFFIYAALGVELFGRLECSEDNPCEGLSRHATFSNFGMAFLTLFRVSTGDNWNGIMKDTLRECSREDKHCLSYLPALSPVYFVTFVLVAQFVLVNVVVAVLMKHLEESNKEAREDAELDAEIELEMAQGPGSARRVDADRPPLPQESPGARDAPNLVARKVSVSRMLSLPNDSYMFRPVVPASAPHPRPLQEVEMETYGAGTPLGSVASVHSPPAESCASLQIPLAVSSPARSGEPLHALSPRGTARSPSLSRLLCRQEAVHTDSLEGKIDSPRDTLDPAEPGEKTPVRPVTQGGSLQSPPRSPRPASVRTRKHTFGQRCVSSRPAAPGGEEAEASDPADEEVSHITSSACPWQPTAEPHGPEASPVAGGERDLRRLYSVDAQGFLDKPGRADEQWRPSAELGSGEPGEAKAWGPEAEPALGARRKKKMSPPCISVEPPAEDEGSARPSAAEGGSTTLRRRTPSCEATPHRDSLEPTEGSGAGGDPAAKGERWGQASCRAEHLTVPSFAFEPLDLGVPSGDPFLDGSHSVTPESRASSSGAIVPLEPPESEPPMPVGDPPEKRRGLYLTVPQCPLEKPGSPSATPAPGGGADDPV

SMILES | Emax [5] | Human 5-HT2A (%) primary radioligand competitive binding [6] | Rat 5-HT2C (%) primary radioligand competitive binding [7] | Rat CB1 (%) primary radioligand competitive binding [8] | Ki [10] | Ki [8] | Human CB2 (%) primary radioligand competitive binding [10] | further results
CCCCCn1c2ccccc2c2cc(C(=O)N3CCCCC3)ccc21 [NMP-7] | 30.8% | – | – | – | – | – | – | hyperpolarizing shift in the half inactivation potential of Cav3.2 channels [1]: 13 mV; half-inactivation potential after treatment with drug ([1]; n = 4): -63.3 ± 3.5 mV; inhibition of the pain responses in phase 1 [2, 11]: 92 ± 7%; inhibition of the pain responses in phase 2 [2, 11]: 94 ± 6%; effect on first phase of formalin-induced nociception ([2]; i.pl., co-injected with formalin, NMP-4 and NMP-144 0.03-3 μg/paw, NMP-7 0.3-3 μg/i.pl.): able to inhibit the first phase; reduction of pain response time, first (neurogenic) phase [2, 12]: significant inhibition; reduction of pain response time, second (inflammatory) phase [2, 12]: significant inhibition; locomotor activity in the open-field test [3]: did not alter locomotor activity; EC50 [4]: 96.9 ± 11.9 nM; Emax ([4]; read-out: GTPγ[35S] functional assays Human CB1 Emax): 73.6%; EC50 [5]: 10.5 ± 1.8 nM
CCCCCn1c2ccccc2c2cc(C(=O)NCCc3ccc(Cl)cc3)ccc21 [NMP-139] | – | 7.7% | -7.8% | 46.3% | 3590 ± 424 nM | – | – | inhibition of T-type current [9]: < 20%
CCCCCn1c2c(c3ccccc31)C[C@H](C(=O)N1CCCCC1)NC2 [NMP-140] | – | 11.2% | -4.2% | 79.3% | 2870 ± 515 nM | 1250 ± 290 nM | 71.1% | –
CCCCCn1c2c(c3ccccc31)C[C@@H](C(=O)N1CCCCC1)NC2 [NMP-141] | 51.9% | 11.9% | -8.4% | 88.6% | 481 ± 52.9 nM | 906 ± 211 nM | 88.7% | GTPγ[35S] functional assays Human CB1 EC50 ([4]; NA: not active at 1 μM): did not show any agonistic or antagonistic activities; EC50 ([5]; read-out: GTPγ[35S] functional assays Human CB2 EC50): 112 ± 3.3 nM
